From patent US20020197244A1, “Compositions and methods for regulating phagocytosis and ICAM-1 expression” (priority 1998, published 2002) come the findings set out here.

“Also recorded” adds a separate entry of the source.

Holding throughout (type): cell-based
One assay has as its system ICAM-1. Briefly: ICAM-1 immuno-precipitation and Western blotting in keratinocytes. The conditions noted are these: treated keratinocytes; FIG. 6B. As to the method: Immuno-precipitation and Western blotting experiments were performed, according to known methods, to assess the level of ICAM-1 protein in treated keratinocytes.
For orientation: Immunoblotting shows a protein as a band on a membrane.

The next assay deals with Human keratinocytes. Briefly: Timing of effect on keratinocyte microsphere phagocytosis. The conditions noted are these: effect = decrease for Compound I, increase for SLIGRL. Details: key: +: Plus signs indicate an effect on phagocytosis; −: minus signs indicate no effect on phagocytosis; −/+: plus/minus signs indicate a marginal effect on phagocytosis. How it is done: In this example, human primary keratinocytes or the human keratinocyte cell line HaCaT were used as in vitro model systems to study the effect of PAR-2 regulators on keratinocyte phagocytosis. The human primary keratinocytes used are commercially available from Clonetics (San Diego, Calif.). Cells were plated on chamber slides, at 2 chambers/slide and 60,000 cells/chamber. Cells were treated once daily, for two or three days, with Compound I (1μM), SLIGRL (10μM), or vehicle (Phosphate-buffered saline, (“PBS”) from Gibco-BRL (Gaithersburg, Md.). After two or three days of exposure to the test compounds, cells were exposed to Nile-red or FITC fluorescent microspheres, 1 μm in diameter, 50 microspheres/cell, for two hours at 37° C. Microspheres were from Molecular Probes (Eugene, Oreg.), and were processed according to manufacturer's instructions. Following that treatment, cells were incubated with 15% Fetal Bovine Serum (“FBS”, from Gibco-BRL), for 15 minutes at 37° C. and rinsed with PBS. At that time, chambers were separated from the slides, and the slides were covered with glycerol and coverslips. Fluorescent microscopy was performed using a Zeiss Axiovert 35 or a Nikon Optiphot-2 microscope.
Human keratinocytes were treated with Compound I or SLIGRL for periods of time ranging from one hour to two days. At the end of the treatment period, the cells were treated with microspheres as described in Example 1. […] Plus signs indicate an effect on phagocytosis, minus signs indicate no effect on phagocytosis, and plus/minus signs indicate a marginal effect on phagocytosis. The effects measured were a decrease for Compound I and an increase for SLIGRL. […] This implies that the PAR-2 signaling results in new protein synthesis, a reduction in protein synthesis when a turnover time is required to eliminate the existing relevant protein(s), or a rearrangement of proteins (as occurs in the reorganization of cytoskeletal components).

For the next assay, the system named is MelanoDerm equivalents. Briefly: Pigmentation in melanocyte-containing epidermal equivalents. Conditions: keratinocyte-melanocyte contact. How it is done: (§1) Since PAR-2 is expressed in keratinocytes, but not in melanocytes, the possible requirement of keratinocyte-melanocyte contact was tested for the effect of Compound I and SLIGRL on melanosome phagocytosis by the keratinocytes. Primary melanocyte cultures (commercially available from Clonetics, San Diego) were plated under epidermal equivalents (EpiDerm, of MatTek, Ashland, Mass.) to create an equivalent-monolayer co-culture with no contact between keratinocytes and melanocytes. These co-cultures were compared to MelanoDerm equivalents (of MatTek), where melanocytes are present in the basal layer of the equivalent. Cultures were treated with Compound I, with the […], and with the PAR-2 agonist SLIGRL. As set forth in Table 3, keratinocytes are indicated by “K”, melanocytes are indicated by “M”, and lack of keratinocyte-melanocyte contact is indicated as “no K-M cont”. […] The same result was also observed with monolayer keratinocyte/melanocyte co-cultures having keratinocyte/melanocyte contact.

Assay [1] relates to monolayer keratinocyte/melanocyte co-cultures. Briefly: Pigmentation in monolayer keratinocyte/melanocyte co-cultures (K-M contact). The conditions noted are these: keratinocyte-melanocyte contact. How it is done:
as §1

Assay [2] deals with melanocyte cultures plated under epidermal equivalents (EpiDerm). Briefly: Pigmentation in equivalent-monolayer co-culture (no K-M contact). Conditions: no keratinocyte-melanocyte contact. As to the method: as §1
The test system of a further assay is Keratinocytes. Briefly: Scanning electron microscopy of keratinocyte podia. The conditions noted are these: treated two days; vs vehicle-treated controls; FIG. 8. As to the method:
PAR-2 Effect on Phagocytosis and Migration Relates to Changes in Cell Shape Both phagocytosis and cell migration involve changes in cell shape. Therefore, the effect of the PAR-2 pathway reagents on cell podia were studied using scanning electron microscopy. Keratinocytes were treated with Compound I (identified as “SH00230”), SLIGRL and a buffer vehicle for two days, and then processed for SEM using standard techniques. […] In other words, the cells' “fingers” are shorter and malformed, so they cannot grasp objects as well as can the control cells. […] In other words, these cells have a greater probability for productive interaction with particles. Comparing these SEM pictures in FIG. 8, it is clear that SLIGRL-treated cells have a greater ability to interact with particles, while Compound I-treated cells are less suited for such a task.

For the next assay, the system named is Human PMN cells. Briefly: PMN chemotactic migration towards FMLP, Boyden chamber. Conditions: cells counted at 115 microns; PMN pretreated with 5 or 0.5 mg/ml STI or 1 or 0.1 μM Compound I; buffer without FMLP: 19 at 80 μ. As to the method: Since ICAM-1 is involved in cell migration, cell migration towards a chemotactic peptide was studied in cells treated with Compound I and STI. Human PMN cells were placed in one side of a Boyden chamber, using standard techniques, and a chemotactic peptide (FMLP) was placed in the other chamber. Cells were allowed to migrate into the second chamber, and the number of migrating cells per field and distance of migration were calculated. The experiment was repeated with PMN cells pretreated with one of the following: 5 or 0.5 mg/ml STI, 1 or 0.1 μM Compound I, a buffer vehicle, and with and without chemotactic peptide. The number of cells per field that migrated the same distance as the untreated control was measured. Without the peptide and with no treatment, an average of 19 cells/field were migrating a distance of 80 microns. […] In other words, no cells (or less than 5/field) were identified at 115 microns. […] The ability to inhibit PMN migration is an important constituent of anti-inflammatory compounds.

In the case of SLIGRL [reference compound], the “level of ICAM-1 protein expression” value in the assay on ICAM-1 was “increased the level of ICAM-1 expression”. Also, the effect on phagocytosis entry in the assay with Human keratinocytes (1 hour of treatment) is on record as “−”; in the assay with Human keratinocytes (2 hours of treatment) it was “−”; in the assay with Human keratinocytes (4 hours of treatment) it was “−”; in the assay with Human keratinocytes (6 hours of treatment), “−”; in the assay with Human keratinocytes (8 hours of treatment) it was “−/+”; with Human keratinocytes (16 hours of treatment) it was “+”. The effect on phagocytosis entry in the assay with Human keratinocytes (24 hours of treatment) and in the assay on Human keratinocytes (48 hours of treatment) was “+” each time. In addition, in the assay with MelanoDerm equivalents, the “level of pigmentation, Epidermal Equivalents (K-M cont.)” value is given as “induced pigmentation; also recorded: darkening”. Further, in assay [1], the “level of pigmentation, Mono-Layer Co-Cultures (K-M cont.)” value was “darkening”. Moreover, the “level of pigmentation, Equivalent Monolayer Co-culture (no K-M cont.)” value in assay [2] is “no effect”. For the same molecule, the “shape of cell podia” value with Keratinocytes was “podia were increased in number, were somewhat longer, and were much thinner”.
As for `CN[C@H](Cc1ccccc1)C(=O)N1CCCC1C(=O)N[C@@H](CCCNC(=N)N)C(=O)c1nc2ccccc2s1` (stereo partly drawn) [Compound I, (S)-N-Methyl-D-phenylalanyl-N-[4-[(aminoiminomethyl)amino]-1-(2-benzothiazolylcarbonyl)butyl]-L-prolinamide], in the assay with ICAM-1, the “level of ICAM-1 protein expression” value is recorded as “decreased the level of ICAM-1 expression”. The effect on phagocytosis entry with Human keratinocytes (1 hour of treatment) was “−”; in the assay on Human keratinocytes (2 hours of treatment), “−”; in the assay on Human keratinocytes (4 hours of treatment), “−”; in the assay on Human keratinocytes (6 hours of treatment), “−”; in the assay with Human keratinocytes (8 hours of treatment), “−/+”; in the assay with Human keratinocytes (16 hours of treatment), “+”. For the same molecule, the effect on phagocytosis result with Human keratinocytes (24 hours of treatment) and in the assay on Human keratinocytes (48 hours of treatment) was “+” in each case. The “level of pigmentation, Epidermal Equivalents (K-M cont.)” value in the assay on MelanoDerm equivalents is given as “reduced; also recorded: lightening”. Besides, in assay [1], the “level of pigmentation, Mono-Layer Co-Cultures (K-M cont.)” value is “lightening”. The “level of pigmentation, Equivalent Monolayer Co-culture (no K-M cont.)” value in assay [2] was “no effect”. The Cells/Field with Human PMN cells is less than 5 cells/field. Besides, in the assay with Keratinocytes, the “shape of cell podia” value was “dramatically shorter podia”.

B1: STI: Soybean trypsin inhibitor, a serine protease inhibitor capable of affecting the PAR-2 pathway (protein, UniProt P01070 25-205, looked up)
Trypsin inhibitor A: DFVLDNEGNPLENGGTYYILSDITAFGGIRAAPTGNERCPLTVVQSRNELDKGIGTIISSPYRIRFIAEGHPLSLKFDSFAVIMLCVGIPTEWSVVEDLPEGPAVKIGENKDAMDGWFRLERVSDDEFNNYKLVFCPQQAEDDKCGDIGISIDHDDGTRRLVVSKNKPLVVQFQKLDKESL
Regarding B1, the Cells/Field with Human PMN cells was less than 5 cells/field.
